Columns and labels:
S. aureus ATCC 13709 = assay: NCCLS broth microdilution MIC, S. aureus (MSSA); type: cell-based, Staphylococcus aureus; settings: organism E = S. aureus ATCC 13709 (MSSA)
Excerpt: (§1) Compounds according to this invention were screened for their in vitro activities against selected species of bacteria and fungi. […]

C. albicans ATCC 38247 = assay: Antifungal MIC, C. albicans; type: cell-based, Candida albicans; settings: organism B = C. albicans ATCC 38247
Excerpt: as §1

S. aureus ATCC 27660 = assay: NCCLS broth microdilution MIC, S. aureus (MRSA); type: cell-based, Staphylococcus aureus; settings: organism F = S. aureus ATCC 27660 (MRSA)
Excerpt: as §1

B. cereus ATCC 11778 = assay: NCCLS broth microdilution MIC, B. cereus; type: cell-based, Bacillus cereus; settings: organism A = B. cereus ATCC 11778
Excerpt: as §1

E. faecalis ATCC 29212 = assay: NCCLS broth microdilution MIC, E. faecalis; type: cell-based; settings: organism C = E. faecalis ATCC 29212
Excerpt: as §1

S. pneumoniae ATCC 49619 = assay: NCCLS broth microdilution MIC, S. pneumoniae ATCC 49619; type: cell-based, Streptococcus pneumoniae; settings: organism H = S. pneumoniae ATCC 49619
Excerpt: as §1

S. pneumoniae ATCC 51422 = assay: NCCLS broth microdilution MIC, S. pneumoniae (PRSP); type: cell-based, Streptococcus pneumoniae; settings: organism I = S. pneumoniae ATCC 51422 (PRSP)
Excerpt: as §1

[1] = system: S. epidermidis ATCC 12228; assay: NCCLS broth microdilution MIC, S. epidermidis; type: cell-based, Staphylococcus epidermidis; settings: organism G = S. epidermidis ATCC 12228
Excerpt: as §1

E. faecium ATCC 51559 = assay: NCCLS broth microdilution MIC, E. faecium (VRE); type: cell-based, Enterococcus faecium; settings: organism D = E. faecium ATCC 51559 (VRE)
Excerpt: as §1

[2] = Staphylococcus aureus, read-out: Minimum Inhibitory Concentration (MIC)

Row | SMILES | Minimum Inhibitory Concentration (MIC) (S. aureus ATCC 13709) | Minimum Inhibitory Concentration (MIC) (C. albicans ATCC 38247) | Minimum Inhibitory Concentration (MIC) (S. aureus ATCC 27660) | Minimum Inhibitory Concentration (MIC) (B. cereus ATCC 11778) | Minimum Inhibitory Concentration (MIC) (E. faecalis ATCC 29212) | Minimum Inhibitory Concentration (MIC) (S. pneumoniae ATCC 49619) | Minimum Inhibitory Concentration (MIC) (S. pneumoniae ATCC 51422) | Minimum Inhibitory Concentration (MIC) [1] | Minimum Inhibitory Concentration (MIC) (E. faecium ATCC 51559) | MIC (S. aureus ATCC 13709; [2]) [µg/mL] | MIC (C. albicans ATCC 38247; Candida albicans, ATCC38247, read-out: Minimum Inhibitory Concentration (MIC)) [µg/mL] | MIC (S. aureus ATCC 27660; [2]) [µg/mL] | MIC (B. cereus ATCC 11778; Bacillus cereus, ATCC11778, read-out: Minimum Inhibitory Concentration (MIC)) [µg/mL] | MIC (E. faecalis ATCC 29212; Enterococcus faecalis, ATCC29212, read-out: Minimum Inhibitory Concentration (MIC)) [µg/mL] | MIC (S. pneumoniae ATCC 49619; Streptococcus pneumoniae, ATCC49619, read-out: Minimum Inhibitory Concentration (MIC)) [µg/mL] | MIC (S. pneumoniae ATCC 51422; Streptococcus pneumoniae, read-out: Minimum Inhibitory Concentration (MIC)) [µg/mL] | MIC ([1]; Staphylococcus epidermidis, ATCC12228, read-out: Minimum Inhibitory Concentration (MIC)) [µg/mL] | MIC (E. faecium ATCC 51559; Enterococcus faecium, read-out: Minimum Inhibitory Concentration (MIC)) [µg/mL]
1 | Cn1cc(NC(=O)c2cc3ccccc3cn2)cc1C(=O)Nc1cc(C(=O)Nc2c[nH]c(C(=O)NCCN3CCSCC3)c2)n(C)c1 [Ib-54] | +++ (+++ = MIC ≦ 4) | >32 µg/mL | +++ (+++ = MIC ≦ 4) | +++ (+++ = MIC ≦ 4) | +++ (+++ = MIC ≦ 4) | +++ (+++ = MIC ≦ 4) | +++ (+++ = MIC ≦ 4) | ++ (++ = 4 < MIC < 12) | +++ (+++ = MIC ≦ 4) |  |  |  |  |  |  |  |  | 
2 | Cn1cc(NC(=O)c2cc(NC(=O)c3cc(NC(=O)c4cc5ccccc5cn4)c[nH]3)cn2C)cc1C(=O)NCCN1CCC(F)(F)CC1 [Ib-78] | +++ (+++ = MIC ≦ 4) | >32 µg/mL | +++ (+++ = MIC ≦ 4) | +++ (+++ = MIC ≦ 4) | +++ (+++ = MIC ≦ 4) | +++ (+++ = MIC ≦ 4) | +++ (+++ = MIC ≦ 4) | +++ (+++ = MIC ≦ 4) | +++ (+++ = MIC ≦ 4) |  |  |  |  |  |  |  |  | 
3 | COCCOCCOCCn1cc(NC(=O)c2cc(NC(=O)c3cc4ccccc4cn3)cn2C)cc1C(=O)Nc1cc(C(=O)NCCN2CCOCC2)n(C)c1 [Ib-83] | +++ (+++ = MIC ≦ 4) | >32 µg/mL | +++ (+++ = MIC ≦ 4) | +++ (+++ = MIC ≦ 4) | +++ (+++ = MIC ≦ 4) | +++ (+++ = MIC ≦ 4) | +++ (+++ = MIC ≦ 4) | +++ (+++ = MIC ≦ 4) | +++ (+++ = MIC ≦ 4) |  |  |  |  |  |  |  |  | 
4 | Cn1cc(NC(=O)c2cc(NC(=O)c3cc(NC(=O)c4cc5ccccc5cn4)cn3C)c[nH]2)cc1C(=O)NCCN1CCCC1 [Ib-84] | +++ (+++ = MIC ≦ 4) | + (+ = 12 ≦ MIC ≦ 32) | +++ (+++ = MIC ≦ 4) | +++ (+++ = MIC ≦ 4) | +++ (+++ = MIC ≦ 4) | +++ (+++ = MIC ≦ 4) | +++ (+++ = MIC ≦ 4) | +++ (+++ = MIC ≦ 4) | +++ (+++ = MIC ≦ 4) |  |  |  |  |  |  |  |  | 
5 | Cn1cc(NC(=O)c2cc(NC(=O)c3cc(NC(=O)c4cc5ccccc5cn4)cn3C)c[nH]2)cc1C(=O)NCCN1CCC(F)CC1 [Ib-85] | +++ (+++ = MIC ≦ 4) | + (+ = 12 ≦ MIC ≦ 32) | +++ (+++ = MIC ≦ 4) | +++ (+++ = MIC ≦ 4) | +++ (+++ = MIC ≦ 4) | +++ (+++ = MIC ≦ 4) | +++ (+++ = MIC ≦ 4) | +++ (+++ = MIC ≦ 4) | +++ (+++ = MIC ≦ 4) |  |  |  |  |  |  |  |  | 
6 | Cn1cc(NC(=O)c2cc(NC(=O)c3cc(NC(=O)c4cc5ccccc5cn4)cn3C)c[nH]2)cc1C(=O)NCCN1CCCCC1 [Ib-86] | +++ (+++ = MIC ≦ 4) | ++ (++ = 4 < MIC < 12) | +++ (+++ = MIC ≦ 4) | +++ (+++ = MIC ≦ 4) | +++ (+++ = MIC ≦ 4) | +++ (+++ = MIC ≦ 4) | +++ (+++ = MIC ≦ 4) | +++ (+++ = MIC ≦ 4) | +++ (+++ = MIC ≦ 4) |  |  |  |  |  |  |  |  | 
7 | Cn1cc(NC(=O)c2cc(NC(=O)c3cc(NC(=O)c4cc5ccccc5cn4)cn3C)c[nH]2)cc1C(=O)NCCN1CCSCC1 [Ib-87] | +++ (+++ = MIC ≦ 4) | >32 µg/mL | +++ (+++ = MIC ≦ 4) | +++ (+++ = MIC ≦ 4) | +++ (+++ = MIC ≦ 4) | +++ (+++ = MIC ≦ 4) | +++ (+++ = MIC ≦ 4) | +++ (+++ = MIC ≦ 4) | +++ (+++ = MIC ≦ 4) |  |  |  |  |  |  |  |  | 
8 | Cn1cc(NC(=O)c2cc(NC(=O)c3cc(NC(=O)c4cc5ccccc5cn4)cn3C)c[nH]2)cc1C(=O)NCCN1CCC(F)(F)CC1 [Ib-88] | +++ (+++ = MIC ≦ 4) | >32 µg/mL | +++ (+++ = MIC ≦ 4) | +++ (+++ = MIC ≦ 4) | +++ (+++ = MIC ≦ 4) | +++ (+++ = MIC ≦ 4) | +++ (+++ = MIC ≦ 4) | +++ (+++ = MIC ≦ 4) | +++ (+++ = MIC ≦ 4) |  |  |  |  |  |  |  |  | 
9 | Cn1cc(NC(=O)c2cc(NC(=O)c3cc(NC(=O)c4cc5ccccc5cn4)cn3C)c[nH]2)cc1C(=O)NCCc1ccccn1 [Ib-93] | +++ (+++ = MIC ≦ 4) | >32 µg/mL | +++ (+++ = MIC ≦ 4) | +++ (+++ = MIC ≦ 4) | +++ (+++ = MIC ≦ 4) | +++ (+++ = MIC ≦ 4) | +++ (+++ = MIC ≦ 4) | +++ (+++ = MIC ≦ 4) | +++ (+++ = MIC ≦ 4) |  |  |  |  |  |  |  |  | 
10 | Cn1cc(NC(=O)c2ccc(NC(=O)c3cc(NC(=O)c4cc5ccccc5cn4)cn3C)cc2)cc1C(=O)NCCN1CCOCC1 [Ic-1] |  |  |  |  |  |  |  |  |  | < 4 | > 32 | < 4 | < 4 | < 4 | < 4 | < 4 | < 4 | < 4
11 | Cn1cc(NC(=O)c2ccc(NC(=O)c3cc(NC(=O)c4cc5ccccc5cn4)cn3C)cc2)cc1C(=O)NCCN1CCC(F)CC1 [Ic-3] | +++ (+++ = MIC ≦ 4) | >32 µg/mL | +++ (+++ = MIC ≦ 4) | +++ (+++ = MIC ≦ 4) | +++ (+++ = MIC ≦ 4) | +++ (+++ = MIC ≦ 4) | +++ (+++ = MIC ≦ 4) | +++ (+++ = MIC ≦ 4) | +++ (+++ = MIC ≦ 4) |  |  |  |  |  |  |  |  | 
12 | Cn1cc(NC(=O)c2ccc(NC(=O)c3cc(NC(=O)c4cc5ccccc5cn4)cn3C)cc2)cc1C(=O)NCCN1CCC(F)(F)CC1 [Ic-4] | +++ (+++ = MIC ≦ 4) | >32 µg/mL | +++ (+++ = MIC ≦ 4) | +++ (+++ = MIC ≦ 4) | +++ (+++ = MIC ≦ 4) | +++ (+++ = MIC ≦ 4) | +++ (+++ = MIC ≦ 4) | +++ (+++ = MIC ≦ 4) | +++ (+++ = MIC ≦ 4) |  |  |  |  |  |  |  |  | 

Reference: patent US6777425B2, “Isoquinoline compounds having antiinfective activity” (Genesoft Pharmaceuticals, Inc., priority 2001, dated 2004)
